# pKd, pKi: −log10 of the molar value.
# Tests used:
# GST-Pin1 [1] = molecular target: T1, GST-Pin1 (Homo sapiens, UniProt Q13526); test: fluorescence polarization (FP) pTide competition assay / FP-HTS
# Description: This sequence was optimized for solubility and binding to GST-PPI. […] Measurements of fluorescence polarization and fluorescence absorbance were made in black 384-well plates (Corning) using a Synergy II plate reader. Compounds were transferred to plates using a custom-built Seiko pin-transfer robot at the Institute for Chemistry and Cell Biology at Harvard Medical School. The assay can tolerate up to 10%/o DMSO.
# Molecules that compete with pTide for binding to the active site, e.g., Pin1 substrates, were detected under equilibrium conditions. A Z score was used to identify and rank those molecules that were most competitive with pTide (e.g., that have higher binding affinity). A Z score is defined as Z=(x−μ)/σ, where x is a raw score, μ is the mean of the population, and σ is the standard deviation of the population. Molecules with the most negative Z scores represent those with the highest Pin1 binding affinity. The Z′ value for this assay was around 0.70 and was consistent for day-to-day performance, with a coefficient of variation in the range of 4-5%.
# A lower value of Ki is indicative of higher association and, accordingly, higher affinity of the substrate to the protein.
# cyclin D1 promoter = cyclin D1 promoter luciferase activity with Pin1 overexpression; conditions: 72 hours
# [2] = humans; cited from earlier work
# DC2.4 cells = test: IL-33-induced gene expression in DC2.4 cells expressing IRAKM or mutants; type: cell-based, mouse
# Description: In the left panels, western blots show protein levels of IRAKM, Pin1 and tubulin. The right panels show the relative gene expression of IL-6, CXCL2, CSF3 and CCL5 in the different samples normalized to actin.
# [3] = test system: Pin1 and its substrate oncogenes and tumor suppressors; test: immunoblot of Pin1 and its substrate proteins in breast cells
# Procedure: (§2) For immunoprecipitation and immunoblotting in the examples below, cells were polyethylenimine (PEI)- or lipofemamine-transfected with 8 μg of various plasmids, incubated in 10 cm dishes for 24 hours, and subsequently treatment with drugs as needed. […] After centrifugation at 13,000 g for 10 minutes, one tenth of the supernatant was stored as input, and the remainder was incubated 12 hours with M2 Flag agarose (Sigma). After brief centrifugation, immunoprecipitates were collected, extensively washed with the aforementioned lysis buffer twice, suspended in 2×SDS sample buffer (100 mM Tris-HCl, pH 6.8, 4% SDS, 5% β-mercaptoethanol, 20% glycerol, and 0.1% bromphenol blue), boiled for 10 minutes, and subjected to immunoblotting analysis. […] After electrophoresis, gel was transferred to nitrocellulose membranes using a semidry transfer cell. The transblotted membrane was washed twice with Tris-buffered saline containing 0.1% Tween 20 (TBST). After blocking with TBST containing 5% bovine serum albumin (BSA) for 1 hour, the membrane was incubated with the appropriate primary antibody (diluted 1:1000) in 2% BSA-containing TBST at 4° C. overnight. After incubation with the primary antibody, the membrane was washed three times with TBST for a total of 30 minutes followed by incubation with horseradish peroxidase (HRP)-conjugated goat anti-rabbit or anti-mouse IgG (diluted 1:2500) for 1 hour at room temperature. After three extensive washes with TBST for a total of 30 minutes, the immunoblots were visualized by enhanced chemiluminescence.
# GST-Pin1 [4] = molecular target: T1, GST-Pin1; test: chymotrypsin coupled PPlase activity assay, Pin1; type: biochemical
# Description: where Km is the Michaelis constant for the used substrate, S is the initial concentration of the substrate in the assay, and the IC50 value is of the inhibitor.
# [5] = test system: Pin1 and PML-RARα in NB4 cells; test: immunoblot of Pin1 and PML-RARα in APL NB4 cells; type: cell-based, human
# Procedure: as §2
# Pin1 [6] = molecular target: T2, Pin1 (Homo sapiens, UniProt Q13526); test: photoaffinity labeling of Pin1 with [3H]ATRA; type: binding; conditions: read-out: equilibrium dissociation constant Kd
# T2 construct: His6 (N); made in house; host or cells: E. coli (inferred: pET28, IPTG induction, LB culture; BL21(DE3) is printed only for the WW domain)
# T2 sequence (Q13526 whole entry, the tested form may be a part): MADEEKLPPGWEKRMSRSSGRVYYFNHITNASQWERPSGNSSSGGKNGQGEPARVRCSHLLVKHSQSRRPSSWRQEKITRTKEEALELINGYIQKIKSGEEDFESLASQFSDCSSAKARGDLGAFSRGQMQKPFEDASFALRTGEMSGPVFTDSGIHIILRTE
# Procedure: […] of Pin1 was incubated in microcentrifuge tubes with a series of concentrations of all-trans-[11,12-^3H]-retinoic acid (PerkinElmer, 43.7 Ci/mmol) in 20 μl of the FP assay buffer at 23° C. with agitation for 2 hours in the dark. The caps of the microcentrifuge tubes were opened, and the samples were placed on ice and exposed to an Electrophoresis System 365/254 nm UV hand lamp (Fisher Scientific) suspended 6 cm above the surface of the liquid for 15 minutes. The samples were boiled in SDS sample buffer and subsequently separated on standard SDS/PAGE gels. The gels were dried and then used for fluorography at −80° C. for 5 days and quantified using Quantity One from BioRad.
# SKBR3 cells = test: foci formation assay with Pin1 overexpression
# MDA-MB-231 cells = test: MDA-MB-231 xenograft in nude mice
# Description: In pilot experiments, MDA-MB-231 cells were subcutaneously injected into female nude mice in the flank.
# human APL NB4 cells = test: NB4 cell growth; type: cell-based
# Procedure: (§1) Absorbance was determined at 570 nm.
# GST-FKBP12 = GST-FKBP12 (Homo sapiens, UniProt P62942); test: chymotrypsin coupled PPlase activity assay, FKBP12; type: biochemical
# Sequence of GST-FKBP12 (P62942 whole entry): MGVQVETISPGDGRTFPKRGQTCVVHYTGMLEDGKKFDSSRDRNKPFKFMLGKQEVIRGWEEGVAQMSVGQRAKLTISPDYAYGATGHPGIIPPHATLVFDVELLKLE
# [7] = test system: APL cells isolated from hCG-PML-RARα transgenic mice; conditions: same regimens
# MDA-MB-468 cells = test: MDA-MB-468 xenograft in nude mice
# Procedure: Tumor sizes were measured weekly and mice were sacrificed after 7 weeks to collect tumor tissues (37D). […] Pin1 and cyclin D1 in xenograft tumors were assayed by IB (37F).
# Pin1 [8] = test: Pin1 protein level, mRNA and stability in MEFs (immunoblot, RT-PCR, CHX chase); type: cell-based, mouse
# Procedure: RNA from cells was extracted with the Total RNA isolation mini kit (Agilent). cDNA was prepared with transcriptor first strand cDNA synthesis kit (Roche) and PCR was carried out with iQ SYBR Green Supermix (Bio-Rad) or SYBR Green PCR Master Mix (Applied Blosystems). 1 μl cDNA was used for each RT-PCR reaction. Samples were run on the QIAGEN Rotor-Gene Q real-time cycler or the Applied Biosystems StepOnePlus Real Time PCR instrument. GAPDH was used as an internal control. Analysis was performed with the ^ΔΔCt method. The following primers were used: […]
# GST-cyclophilin = test: chymotrypsin coupled PPlase activity assay, cyclophilin
# IL-33-induced asthma = IL-33-induced asthma in mice
# MRL/lpr lupus prone mice = test: MRL/lpr lupus prone mice
# [9] = test system: human normal and breast cancer cell lines; test: cell growth of human normal and breast cancer cell lines; type: cell-based; conditions: 72 hours
# Procedure: as §1
# To test this possibility, we chose breast cancer as a model due to the substantial oncogenic role of Pin1 in vitro and in vivo.
# [10] = test system: Pin1 WT and Pin1 KO mouse embryonic fibroblasts (MEFs); test: cell growth of Pin1 WT and KO MEFs
# Procedure: For cell growth assays described below, cells were seeded in a density of 3000 cells per well in 96-well flat-bottomed plates, and incubated for 24 h in 10% FBS-supplemented DMEM culture medium. […] Control cells received DMSO at a concentration equal to that in drug-treated cells. After 72 hours, the number of cells was counted after trypsin digestion, or medium containing 0.5 mg/ml 3-(4,5-dimethylthiazol-2-yl)-2,5-diphenyl-2H-tetrazolium bromide was added to each well for 2 hours of incubation at 37° C., followed by removal of the media before the addition of 200 μl DMSO. Absorbance was determined at 570 nm.
# [11] = test system: BMDCs co-cultured with naive CD4+ cells; test: IL-33-induced TH2 polarization, BMDC / naive CD4+ T cell coculture; conditions: IL-33 50 ng/ml, 5 μM ATRA
# Procedure: BMDCs were isolated from WT or Pin1 KO mice in a 1:5 ratio for 5 days with no antigen being added. […] Supernatants were analyzed for cytokines on day 5.
# To examine whether Pin1 is required for IL-33-induced TH2 polarization, we evaluated the effects of Pin1 KO derived dendritic cells in IL-33-induced TH2 polarization by co-culturing bone marrow dendritic cells (BMDCs) derived from WT or Pin1 KO mice with WT naïve CD4^+ cells. The cells were treated with IL-33 and resultant IL-5 and IL-13 were measured.
# RAR = test: transactivation of RAR downstream target genes
# [12] = test system: NIH3T3 cells stably expressing Flag-tagged Pin1; test: centrosome amplification induced by Pin1 overexpression; conditions: 72 hours
# Procedure: Tissue samples were washed with PBS and fixed with 4% paraformaldehyde at room temperature for 20 minutes, followed by permeabilization and blocking with PBS containing 0.1% Triton X-100 and 5% FBS for 1 hour. After another wash with PBS, immunostaining was performed by incubating the cells with mouse anti-Pin1 (1:1000), or rabbit anti-PML (Santa Cruz; 1:100) primary antibodies at 4° overnight. Primary antibodies were diluted in PBS containing 0.1% Triton X-100, 0.2% BSA, 0.5 mM PMSF, and 1 mM dithiothreitol. […] Samples were nuclear counterstained with 4,6-diamidino-2-phenylindole (DAPI), mounted and visualized with a LSM510 confocal imaging system. For centrosome duplication assays, NIH3T3 cells were used. Cells were synchronized in G1/S phase by adding 10 μg/ml aphidicolin for 24 hours, then fixed with 4% paraformaldehyde at room temperature for 20 minutes. Cells were then stained for centrosomes with anti-γ-tubulin antibodies (Sigma; 1:100) and analyzed by confocal microscopy.
# Pin1 and PML-RARα = Pin1 and PML-RARα immunostaining in bone marrow of APL patients
# Procedure: Tissue samples were washed with PBS and fixed with 4% paraformaldehyde at room temperature for 20 minutes, followed by permeabilization and blocking with PBS containing 0.1% Triton X-100 and 5% FBS for 1 hour. After another wash with PBS, immunostaining was performed by incubating the cells with mouse anti-Pin1 (1:1000), or rabbit anti-PML (Santa Cruz; 1:100) primary antibodies at 4° overnight. Primary antibodies were diluted in PBS containing 0.1% Triton X-100, 0.2% BSA, 0.5 mM PMSF, and 1 mM dithiothreitol. […] Samples were nuclear counterstained with 4,6-diamidino-2-phenylindole (DAPI), mounted and visualized with a LSM510 confocal imaging system.
# Bone marrow aspirates were obtained with informed consent from the iliac crest of patients in whom the diagnosis of acute promyelocytic leukemia was suspected based on the morphological evaluation of peripheral blood smear. […] Samples tested positive for the PML/RARα rearrangement by RT-PCR.
# [13] = three sensitive cancer cell lines, 72 hours
# [14] = 5 or 10 mg 21 day pellets implanted 1 week after inoculation
# [15] = cells stably expressing Flag-Pin1, ATRA implants
# T1 sequence (Q13526 whole entry): as the sequence (Q13526 whole entry, the tested form may be a part) above
smiles,measurement,setting,value
"CC1=C(/C=C/C(C)=C/C=C/C(C)=C/C(=O)O)C(C)(C)CCC1 [ATRA, (2E,4E,6E,8E)-3,7-dimethyl-9-(2,6,6-trimethylcyclohexen-1-yl)nona-2,4,6,8-tetraenoic acid]",Pin1 binding in FP assay,GST-Pin1 [1],dramatically outperformed the other species
same,competition with TAMRA-conjugated pTide for Pin1,GST-Pin1 [1]; TAMRA-labeled probe,competitive
same,Pin1-induced activation of the cyclin D1 promoter,cyclin D1 promoter,dose-dependently and fully inhibited
same,half-life,[2],~45 min
same,reduction of target gene expression in IRAKM P111A cells,DC2.4 cells,completely abolished
same,Pin1 expression,DC2.4 cells; 5 or 10 μM ATRA for three days before IL-33,reduced Pin1 expression
same,"expression of IL-6, CXCL2, CSF3 and CCL5 in IRAKM stably expressing cells",DC2.4 cells; even at low ATRA dose (5 μM),reduced Pin1 expression (FIG. 63D) and the expression of these target genes
same,reduction of target gene expression in IRAKM S110E cells,DC2.4 cells; high ATRA dose (10 μM),some degree of reduction in gene expression still persisted
same,effects on normal breast cells,[3]; normal cells,no appreciable effects
same,protein levels of Pin1 and its substrate oncogenes,[3]; [13],dose-dependent protein reduction
same,protein levels of Pin1 substrate tumor suppressors,[3]; [13],protein induction
same,inhibition of PPlase activity of Pin1,GST-Pin1 [4],fully inhibited
same,pKi,"GST-Pin1 [4]; Cheng-Prusoff equation, read-out: Ki from PPlase assay",6.09
same,Pin1 and PML-RARα expression,"[5]; 10 μM, 96 hours, micrographs",reduced Pin1 and PML-RARα expression
same,PML-RARα level in APL cells,[5]; 72 hours,dose-dependently reduced PML-RARα
same,pKd,Pin1 [6],6.10
same,Pin1-enhanced foci formation,SKBR3 cells,dose-dependently and fully inhibited
same,"antitumor activity, intraperitoneal",MDA-MB-231 cells; 12.5 mg/kg i.p. 3 times a week for 8 weeks,modest antitumor activity
same,Pin1 and cyclin D1 in xenograft tumors,MDA-MB-231 cells; 5 or 10 mg 21 day pellets,reduced both Pin1 and its substrate cyclin D1
same,"tumor growth, ATRA-releasing pellets",MDA-MB-231 cells; [14],potently and dose-dependently inhibited tumor growth
same,endogenous and exogenous Pin1 and cyclin D1 in tumors,MDA-MB-231 cells; [15],"dose-dependently reduced both endogenous and exogenous Pin1, and cyclin D1"
same,tumor growth of Pin1-overexpressing MDA-MB-231 cells,MDA-MB-231 cells; [15],effectively inhibited by ATRA in a dose-dependent manner
same,NB4 cell proliferation,human APL NB4 cells,suppressed
same,inhibition of FKBP12,GST-FKBP12,did not inhibit
same,PML-RARα in the bone marrow,[7],effectively reduced PML-RARα
same,Pin1 levels in the bone marrow,[7],reduced Pin1 levels
same,spleen weights,[7],nearly at basal levels
same,"degradation of PML-RARα and Pin1 in RARα, β, γ triple KO MEFs",Flag-PML-RARα and Pin1,induced degradation of PML-RARα and Pin1 similar to that for WT controls
same,Pin1 and cyclin D1 in xenograft tumors,MDA-MB-468 cells; 5 or 10 mg 21 day pellets,reduced both Pin1 and its substrate cyclin D1
same,"tumor growth, ATRA-releasing pellets",MDA-MB-468 cells; [14],potently and dose-dependently inhibited tumor growth
same,"potency in reducing Pin1 levels and stability, comparison",Pin1 [8],more potent in reducing Pin1 levels and stability than 13cRA
same,Pin1 protein level,"Pin1 [8]; immunoblot, not W34/K63A mutant",dose-dependently down-regulated Pin1
same,Pin1 mRNA levels,Pin1 [8]; quantitative RT-PCR,no obvious effects
same,inhibition of cyclophilin,GST-cyclophilin,did not inhibit
same,"IL-33 induced asthma phenotypes (inflammation, airway remodeling, BALF cells)","IL-33-induced asthma; 10 mg 21 day ATRA-releasing pellets, 14 days before intranasal IL-33",dramatically attenuated
same,BALF IL-12 and TNF-α levels,IL-33-induced asthma; same regimen,no significant effect
same,BALF IL-13 and -5 levels,IL-33-induced asthma; same regimen,significantly reduced
same,IRAKM accumulation and nuclear localization in BALF cells,IL-33-induced asthma; same regimen,almost completely abrogated
same,IRAKM levels in the lung,IL-33-induced asthma; same regimen,reduction of IRAKM levels back to control treated mice
same,Pin1 protein levels in the lung,IL-33-induced asthma; same regimen,effectively decreased the Pin1 protein levels only after IL-33 was administrated
same,"visual lupus-related phenotypes (fur loss, skin inflammation, lymphoid hyperplasia)",MRL/lpr lupus prone mice; 5 mg ATRA for 8 weeks from 8 weeks of age,drastically suppressed
same,size of spleen and lymph node,MRL/lpr lupus prone mice; 14 week-old mouse,normal size
same,"glomerular deposition of IgG, C3, and CD68","MRL/lpr lupus prone mice; mouse, in vivo",potently inhibited
same,hyperkeratinosis,"MRL/lpr lupus prone mice; mouse, in vivo",potently inhibited
same,sensitivity of malignant breast cells,[9],differential susceptibility
same,sensitivity of non-transformed MCF10A and HMLE cells,[9],highly resistant
same,growth inhibition of Pin1 KO MEFs,[10]; Pin1 KO MEFs,much more resistant
same,growth inhibition of Pin1 WT MEFs,[10]; Pin1 WT MEFs,relatively high concentrations of ATRA were required
same,TH2 polarization (IL-5 and IL-13 secretion),[11],drastically attenuated
same,transactivation of RAR downstream target genes,RAR,effectively and significantly induces transactivation of RAR downstreams
same,Pin1-induced centrosome amplification,[12],dose-dependently and fully inhibited
same,PML-RARα level remaining in APL patients' bone marrow,Pin1 and PML-RARα; 3 days of ATRA treatment,~40%
same,Pin1 level remaining in APL patients' bone marrow,Pin1 and PML-RARα; 3 days of ATRA treatment,~40%
same,PML-RARα level remaining in APL patients' bone marrow,Pin1 and PML-RARα; 10 days of ATRA treatment,< 10%
same,Pin1 level remaining in APL patients' bone marrow,Pin1 and PML-RARα; 10 days of ATRA treatment,< 10%

# — patent US20170112792A1, “ENHANCED ATRA-RELATED COMPOUNDS DERIVED FROM STRUCTURE-ACTIVITY RELATIONSHIPS AND MODELING FOR INHIBITING PIN1” (Beth Israel Deaconess Medical Center, Inc., priority 2014, published 2017)
